Measured values published in US20220289791A1, “LACTATE DEHYDROGENASE INHIBITOR POLYPEPTIDES FOR USE IN THE TREATMENT OF CANCER” (UNIVERSITÉ CATHOLIQUE DE LOUVAIN, priority 2019, published 2022).
pKd: −log10 of the molar value. *1 amine or outer side, *2 acyl side, *3 side chain or, on linkers, in order; H or OH if unused. Where a SMILES comes first, the peptide text is derived from it. Bridges are numbered along the chain shown (N, C = ends). C6F4(1,4-diyl) = Fc1c(F)c([*:2])c(F)c(F)c1[*:1]; mXylylene = c1cc(C[*:1])cc(C[*:2])c1

What was measured:
human LDH5 = target: T1, human LDH5 (Homo sapiens, UniProt P00338); experiment: nanoDSF thermal denaturation of LDH5; format: binding; details: for effect on LDH5 stability: nanoDSF
T1 construct: purchased Abnova

rabbit LDH5 (rLDH5) = target: T2, rabbit LDH5 (rLDH5) (Oryctolagus cuniculus, UniProt P13491); experiment: Denaturation assay: rLDH5 fluorescence recovery after acidic exposure; format: biochemical; details: 200 nM rLDH5, 50 μM peptide, pH 5 then neutral pH
T2 construct: purchased Sigma-Aldrich
Method: Rabbit LDHA commercial solution (Sigma-Aldrich®) in an ammonium sulfate suspension (pH-7, 3.2 M) was first diluted to 1 mg/ml in a solution of NaCl 200 mM and then dialyzed at 4° C. 2×2 h against 200 mM NaCl. The stock solution of 1 mg/ml was then diluted to 30 μg/ml (800 nM) in NaCl 20 0 mM to give the assay solution. Assay solution was mixed 1:1 with acetate-chloride buffer (20 mM Acetic acid/Acetate, 180 mM NaCl, 1 mM DTT pH 5) and stored on ice for 30 minutes. Samples were then removed from ice and let warm up for 2 minutes. The acidic solution was then diluted 1:1 with a 250 mM phosphate buffer (pH 7.6) containing or not the inhibitory peptide to yield a 7.5 μg/ml (200 nM) final concentration of re-associating LDHA. Samples of the resulting solutions were then subjected to kinetic experiments of the recovery of intrinsic fluorescence (Exc=286 nm, Em=350 nm, 10′, rt).
An experiment was thus designed to follow the recovery of LDH tetramers after a dissociation step initiated by acidic conditions. […] Monitoring of the rLDH5 tetrameric state was performed by following its intrinsic tryptophan fluorescence: 6 tryptophan residues can be found in each rLDHA monomer, three of them being located at the dimer-dimer interface. As the tryptophan quantum yield decreases in a polar environment, dimeric LDHs show very weak tryptophan fluorescence compared to the tetrameric form. […] Such decay can be compared to the difference in tryptophan fluorescence between tetrameric LDH1 and dimeric LDHBtr.

tetrameric LDH1 = tetrameric LDH1 (Homo sapiens, UniProt P07195); experiment: Microscale thermophoresis (MST) on tetrameric LDH1; format: binding
Sequence of tetrameric LDH1 (P07195 whole entry): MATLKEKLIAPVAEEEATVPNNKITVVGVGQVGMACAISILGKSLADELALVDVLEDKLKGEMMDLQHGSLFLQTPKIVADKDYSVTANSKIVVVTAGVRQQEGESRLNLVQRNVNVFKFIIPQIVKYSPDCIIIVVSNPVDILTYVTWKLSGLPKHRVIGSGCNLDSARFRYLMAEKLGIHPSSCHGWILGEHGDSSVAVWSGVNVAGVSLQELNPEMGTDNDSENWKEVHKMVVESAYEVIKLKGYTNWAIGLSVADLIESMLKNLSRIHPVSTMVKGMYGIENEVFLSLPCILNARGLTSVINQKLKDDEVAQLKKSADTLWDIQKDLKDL
Method: (§1) MST measurements were performed on a Nanotemper Monolith NT.115 instrument (NanoTemper Technologies®) using Red-dye-NHS fluorescent labeling. Each LDH sample, purified to homogeneity, was labeled with the Monolith Red-dye-NHS 2nd generation labeling dye (NanoTemper Technologies®), according to the manufacturer's instructions. Measurements were performed in 50 mM sodium phosphate, pH 7.6, and 100 mM NaCl containing 0.05% Tween-20 in premium-treated capillaries (NanoTemper Technologies®). The final concentrations of either labeled protein in the assay were 100 nM. The ligands (NADH and peptides) were titrated in 1:1 dilutions following manufacturer's recommendations. All binding reactions were incubated for 5 min at room temperature after loading into capillaries. Experiments were performed in triplicates using 40% LED power, medium MST power, Laser On time 20 s and Laser Off time 3 s. Peptides were evaluated for their thermophoretic pattern, and Kd's were extracted from raw data at a 10 to 20 s MST on time according to manufacturer's instructions. Regarding interaction of 7 with LDH5, Kd was extracted from the raw fluorescence. A denaturation test was performed accordingly to manufacturer recommendation and excluded any nonspecific spectral interaction between 7 and the red-dye. […]

tetrameric LDH5 = target: T3, tetrameric LDH5 (Homo sapiens, UniProt P00338); experiment: Microscale thermophoresis (MST) on tetrameric LDH5; format: binding
T3 construct: purchased Abnova
Method: as §1

human LDH1 = human LDH1 (Homo sapiens, UniProt P07195); experiment: nanoDSF thermal denaturation of LDH1; format: binding; details: for effect on LDH1 stability: nanoDSF
Sequence of human LDH1 (P07195 whole entry): as above

[1] = test system: Mia Paca-2 human pancreatic cancer cells; experiment: Seahorse OCR and ECAR measurement; format: cell-based; details: 200 μM, 4 h incubation
Method: Macrocyclic peptide MP7 (SEQ ID NO: 61) was evaluated at 200 μM against Mia Paca-2 human pancreatic cancer cells (ATCC®).
The oxygen consumption rate (OCR) and extracellular acidification rate (ECAR) were measured on a Seahorse XF96 analyzer (Agilent®) with a combination of XF cell mito stress kit (Agilent®) and 2-deoxy-D-glucose (2DG; Sigma Aldrich®). Seahorse experiments were performed using 10,000 cells/well in DMEM medium with 10 mmol/L of D-glucose and 1 mmol/L of L-Glutamine Cells were incubated for 1 h in a CO2-free incubator before analysis. […] Oximetry before the addition of any agent provided the basal respiration rate of the cells; ATP-linked reparation was determined after the addition of 1 μM of oligomycin and the maximal respiration rate of the cells after the addition of 1 μM of FCCP. All data were normalized to cell numbers measured right before oximetry using a SpectraMax miniMax 300 imaging cytometer (Molecular Devices®). Macrocyclic peptide MP7 in PBS or PBS alone (control experiment) were added directly into the medium and incubated with Mia Paca-2 cells during 4 h before conducting Seahorse experiments on the medium composed of the Mia Paca-2 cells with or without macrocyclic peptide MP7.

dimeric model of LDH = dimeric model of LDH (Homo sapiens, UniProt P07195); experiment: nanoDSF thermal denaturation of dimeric LDH model; format: binding
Sequence of dimeric model of LDH (P07195 21-334): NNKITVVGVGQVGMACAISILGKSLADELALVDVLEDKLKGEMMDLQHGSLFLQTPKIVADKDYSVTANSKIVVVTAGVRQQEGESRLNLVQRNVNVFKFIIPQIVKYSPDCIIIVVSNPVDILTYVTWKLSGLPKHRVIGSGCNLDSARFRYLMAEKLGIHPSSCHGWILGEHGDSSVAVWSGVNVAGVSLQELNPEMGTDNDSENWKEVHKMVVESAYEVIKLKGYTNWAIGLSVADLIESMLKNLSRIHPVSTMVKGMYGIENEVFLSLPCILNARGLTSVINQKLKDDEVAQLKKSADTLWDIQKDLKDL

LDHBtr = LDHBtr (Homo sapiens, UniProt P07195); experiment: Intrinsic fluorescence assay on dimeric LDHBtr; format: biochemical
Sequence of LDHBtr (P07195 21-334): as above
Method: Full tryptophan fluorescence spectra were recorded using an excitation wavelength of 286 nm and recording the emission spectra from 320 nm to 400 nm at room temperature. Raw fluorescence of every experiments was further subtracted to a corresponding control experiment without the protein. Experiments were performed in a 50 mM sodium phosphate and 100 mM NaCl, pH 7.6, buffer. For LDH dissociation into subunits, increasing amounts of guanidinium/HCl were put in contact with the studied proteins (1.3 μM), and fluorescence spectra were recorded afterwards. Guanidinium/HCl concentrations ranged from 0.3 M to 2 M.

truncated LDHB (LDHBtr) = truncated LDHB (LDHBtr) (Homo sapiens, UniProt P07195); experiment: Microscale thermophoresis (MST), Example 2, macrocycles against truncated LDHB; format: binding; details: MST traces at 10 s to 20 s on time
Sequence of truncated LDHB (LDHBtr) (P07195 21-334): as above
Method: MST measurements were performed on a Nanotemper Monolith NT.115 instrument (NanoTemper Technologies®) using Red-dye-NHS fluorescent labeling. Each LDH sample, purified to homogeneity, was labeled with the Monolith Red-dye-NHS 2nd generation labeling dye (NanoTemper Technologies®), according to the manufacturer's instructions. Measurements were performed in 50 mM sodium phosphate, pH 7.6, and 100 mM NaCl containing 0.05% Tween-20 in premium-treated capillaries (NanoTemper Technologies®). The final concentrations of either labeled protein in the assay were 100 nM. The ligands (NADH and peptides) were titrated in 1:1 dilutions following manufacturer's recommendations. All binding reactions were incubated for 5 min at room temperature after loading into capillaries. Experiments were performed in triplicates using 40% LED power, medium MST power, Laser On time 20 s and Laser Off time 3 s. Peptides were evaluated for their thermophoretic pattern, and Kd's were extracted from raw data at a 10 to 20 s MST on time according to manufacturer's instructions. Regarding interaction of 7 with LDH5, Kd was extracted from the raw fluorescence. A denaturation test was performed accordingly to manufacturer recommendation and excluded any nonspecific spectral interaction between 7 and the red-dye. All Kd's of interacting macrocycles and peptides were obtained in triplicate and corrected by taking into account the molecular weight of the TFA counter ion.

Row | LDH5 fluorescence recovery after acidification (rabbit LDH5 (rLDH5)) | binding to tetrameric LDH1 (tetrameric LDH1) | binding to tetrameric LDH5 (tetrameric LDH5) | ΔTm at 400 µM (human LDH5; LDH-5 tetramer, MP7 at 400 μM) | destabilization of dimeric model of LDH (dimeric model of LDH) | decay of LDHBtr fluorescence spectrum (LDHBtr) | pKd (truncated LDHB (LDHBtr)) | ΔTm at 400 µM (human LDH1; LDH1, MP7 at 400 μM) | SMILES | effect on LDH5 stability (human LDH5) | effect on LDH1 stability (human LDH1) | glycolytic flux (ECAR) [1] | mitochondrial oxygen consumption rate (OCR) [1]
1 | significantly interfered | did not demonstrated any binding | did not demonstrated any binding | – | – | – | – | – | CC[C@H](C)[C@H](NC(=O)[C@H](CC(C)C)NC(=O)[C@H](CCCCN)NC(=O)[C@@H]1CSCc2cccc(c2)CSC[C@H](N)C(=O)N[C@@H]([C@@H](C)O)C(=O)N[C@@H](CC(C)C)C(=O)N[C@@H](CCCCN)C(=O)N1)C(N)=O [MP1, CTLKCKLI] (H-CTLKCKLI-NH2; linker 1-5 via mXylylene; N-terminus assumed) | no effect up to 500 μM | no effect up to 500 μM | – | –
2 | significantly interfered | – | – | -5 °C | did not induce such destabilization | did not induce a comparative decay | 4.96 | -1.5 °C | CC[C@H](C)[C@H](NC(=O)[C@H](CC(C)C)NC(=O)[C@H](CCCCN)NC(=O)[C@@H]1CSc2c(F)c(F)c(c(F)c2F)SC[C@H](N)C(=O)N[C@@H]([C@@H](C)O)C(=O)N[C@@H](CC(C)C)C(=O)N[C@@H](CCCCN)C(=O)N1)C(N)=O [MP7, CTLKCKLI] (H-CTLKCKLI-NH2; linker 1-5 via C6F4(1,4-diyl); N-terminus assumed) | induced a destabilizing conformational change | induced a destabilizing conformational change | increase | strong decrease
